# Data as given in patent publication US20230295115A1, “SUBSTITUTED ISOQUINOLINYLMETHYL AMIDES, ANALOGUES THEREOF, AND METHODS USING SAME” (priority 2020, published 2023).
# Test system: HBV rcDNA
# Assay: HepDE19 assay with bDNA quantitation of HBV rcDNA
# Assay type: cell-based, hepatitis B virus (HBV)
# Settings: HepDE19 cells, 7 day incubation, rcDNA measured by Quantigene 2.0 bDNA assay, top concentration 25 μM; read-out: DE-19bDNA EC50
# Protocol: HepDE19 assay with bDNA quantitation of HBV rcDNA:
# HepDE19 (50,000 cells/well) were plated in 96-well collagen-coated tissue-culture treated microtiter plates in DMEM/F12 medium supplemented with 10% fetal bovine serum, 1% penicillin-streptomycin and 1 μg/mL tetracycline and incubated in a humidified incubator at 37° C. and 5% CO2 overnight. Next day, the cells were switched to fresh medium without tetracycline and incubated for 4 hours at 37° C. and 5% CO2. […] The final DMSO concentration in the assay was 0.5%. The plates were incubated for 7 days in a humidified incubator at 37° C. and 5% CO2. Following a 7 day-incubation, the level of rcDNA present in the inhibitor-treated wells was measured using a Quantigene 2.0 bDNA assay kit (Affymetrix, Santa Clara, CA) with HBV specific custom probe set and manufacturers instructions. Concurrently, the effect of compounds on cell viability was assessed using replicate plates, plated at a density of 5,000 cells/well and incubated for 4 days, to determine the ATP content as a measure of cell viability using the cell-titer glo reagent (CTG; Promega Corporation, Madison, WI) as per manufacturer's instructions.
row,SMILES,EC50
1,"CC(c1c[nH]c(=O)c2cc(F)c(F)cc12)N(C)C(=O)c1cc2ccccc2[nH]1 (single isomer, unassigned) [Compound 1, N-(1-(6,7-Difluoro-1-oxo-1,2-dihydroisoquinolin-4-yl)ethyl)-N-methyl-1H-indole-2-carboxamide]",2.5 µM
2,"CC(c1c[nH]c(=O)c2cc(F)c(F)cc12)N(C)C(=O)c1cc2ccccc2[nH]1 (single isomer, unassigned) [Compound 2, N-(1-(6,7-Difluoro-1-oxo-1,2-dihydroisoquinolin-4-yl)ethyl)-N-methyl-1H-indole-2-carboxamide]",0.02 µM
3,"CC(C)CN(C(=O)c1cc2ccccc2[nH]1)C(C)c1c[nH]c(=O)c2cc(F)c(F)cc12 (single isomer, unassigned) [Compound 3, N-(1-(6,7-Difluoro-1-oxo-1,2-dihydroisoquinolin-4-yl)ethyl)-N-isobutyl-1H-indole-2-carboxamide]",0.67 µM
4,"CC(C)CN(C(=O)c1cc2ccccc2[nH]1)C(C)c1c[nH]c(=O)c2cc(F)c(F)cc12 (single isomer, unassigned) [Compound 4, N-(1-(6,7-Difluoro-1-oxo-1,2-dihydroisoquinolin-4-yl)ethyl)-N-isobutyl-1H-indole-2-carboxamide]",0.01 µM
5,"CCN(C(=O)c1cc2ccccc2[nH]1)C(C)c1c[nH]c(=O)c2cc(F)c(F)cc12 (single isomer, unassigned) [Compound 5, N-(1-(6,7-Difluoro-1-oxo-1,2-dihydroisoquinolin-4-yl)ethyl)-N-ethyl-1H-indole-2-carboxamide]",1.7 µM
6,"CCN(C(=O)c1cc2ccccc2[nH]1)C(C)c1c[nH]c(=O)c2cc(F)c(F)cc12 (single isomer, unassigned) [Compound 6, N-(1-(6,7-Difluoro-1-oxo-1,2-dihydroisoquinolin-4-yl)ethyl)-N-ethyl-1H-indole-2-carboxamide]",0.01 µM
7,"CC(c1c[nH]c(=O)c2cc(F)c(F)cc12)N(C)C(=O)c1cc2c(F)cccc2[nH]1 (single isomer, unassigned) [Compound 7, N-(1-(6,7-Difluoro-1-oxo-1,2-dihydroisoquinolin-4-yl)ethyl)-4-fluoro-N-methyl-1H-indole-2-carboxamide]",1.7 µM
8,"CC(c1c[nH]c(=O)c2cc(F)c(F)cc12)N(C)C(=O)c1cc2c(F)cccc2[nH]1 (single isomer, unassigned) [Compound 8, N-(1-(6,7-Difluoro-1-oxo-1,2-dihydroisoquinolin-4-yl)ethyl)-4-fluoro-N-methyl-1H-indole-2-carboxamide]",0.02 µM
9,"CC(c1c[nH]c(=O)c2cc(F)c(F)cc12)N(C)C(=O)c1cc2ccc(F)cc2[nH]1 (single isomer, unassigned) [Compound 11, N-(1-(6,7-Difluoro-1-oxo-1,2-dihydroisoquinolin-4-yl)ethyl)-6-fluoro-N-methyl-1H-indole-2-carboxamide]",1.2 µM
10,"CC(c1c[nH]c(=O)c2cc(F)c(F)cc12)N(C)C(=O)c1cc2ccc(F)cc2[nH]1 (single isomer, unassigned) [Compound 12, N-(1-(6,7-Difluoro-1-oxo-1,2-dihydroisoquinolin-4-yl)ethyl)-6-fluoro-N-methyl-1H-indole-2-carboxamide]",0.02 µM
11,"CC(c1c[nH]c(=O)c2cc(F)c(F)cc12)N(C)C(=O)c1cc2cccc(F)c2[nH]1 (single isomer, unassigned) [Compound 13, N-(1-(6,7-Difluoro-1-oxo-1,2-dihydroisoquinolin-4-yl)ethyl)-7-fluoro-N-methyl-1H-indole-2-carboxamide]",3.4 µM
12,"CC(c1c[nH]c(=O)c2cc(F)c(F)cc12)N(C)C(=O)c1cc2cccc(F)c2[nH]1 (single isomer, unassigned) [Compound 14, N-(1-(6,7-Difluoro-1-oxo-1,2-dihydroisoquinolin-4-yl)ethyl)-7-fluoro-N-methyl-1H-indole-2-carboxamide]",0.02 µM
13,"CC(c1c[nH]c(=O)c2cc(F)c(F)cc12)N(C)C(=O)c1cc2cc(F)c(F)cc2[nH]1 (single isomer, unassigned) [Compound 15, N-(1-(6,7-Difluoro-1-oxo-1,2-dihydroisoquinolin-4-yl)ethyl)-5,6-difluoro-N-methyl-1H-indole-2-carboxamide]",1.6 µM
14,"CC(c1c[nH]c(=O)c2cc(F)c(F)cc12)N(C)C(=O)c1cc2cc(F)c(F)cc2[nH]1 (single isomer, unassigned) [Compound 16, N-(1-(6,7-Difluoro-1-oxo-1,2-dihydroisoquinolin-4-yl)ethyl)-5,6-difluoro-N-methyl-1H-indole-2-carboxamide]",0.01 µM
15,"CC(c1c[nH]c(=O)c2cc(F)c(F)cc12)N(C)C(=O)c1cc2c(F)cc(F)cc2[nH]1 (single isomer, unassigned) [Compound 17, N-(1-(6,7-Difluoro-1-oxo-1,2-dihydroisoquinolin-4-yl)ethyl)-4,6-difluoro-N-methyl-1H-indole-2-carboxamide]",2.5 µM
16,"CC(c1c[nH]c(=O)c2cc(F)c(F)cc12)N(C)C(=O)c1cc2c(F)cc(F)cc2[nH]1 (single isomer, unassigned) [Compound 18, N-(1-(6,7-Difluoro-1-oxo-1,2-dihydroisoquinolin-4-yl)ethyl)-4,6-difluoro-N-methyl-1H-indole-2-carboxamide]",0.02 µM
17,"CC(c1c[nH]c(=O)c2cc(F)c(F)cc12)N(C)C(=O)[C@@H]1Cc2ccccc2CN1 (single isomer, unassigned) [Compound 19]",0.82 µM
18,"CC(c1c[nH]c(=O)c2cc(F)c(F)cc12)N(C)C(=O)[C@@H]1Cc2ccccc2CN1 (single isomer, unassigned) [Compound 20]",9.2 µM
19,"CC(c1c[nH]c(=O)c2cc(F)c(F)cc12)N(C)C(=O)[C@H]1Cc2ccccc2N1 (single isomer, unassigned) [Compound 21]",0.3 µM

# Same assay, conditions: Hepatitis B virus, HepDE19, 168 h, HepDE19 cells, 7 day incubation, rcDNA measured by Quantigene 2.0 bDNA assay, top concentration 25 μM; read-out: DE-19bDNA EC50
row,SMILES,EC50
1,"CC(c1c[nH]c(=O)c2cc(F)c(F)cc12)N(C)C(=O)c1cc2c(F)c(F)ccc2[nH]1 (racemic) [Compound 29, N-(1-(6,7-Difluoro-1-oxo-1,2-dihydroisoquinolin-4-yl)ethyl)-4,5-difluoro-N-methyl-1H-indole-2-carboxamide]",0.04 µM
2,"CC(c1c[nH]c(=O)c2cc(F)c(F)cc12)N(C)C(=O)c1[nH]c2ccccc2c1Cl (racemic) [Compound 60, 3-Chloro-N-(1-(6,7-difluoro-1-oxo-1,2-dihydroisoquinolin-4-yl)ethyl)-N-methyl-1H-indole-2-carboxamide]",0.8 µM
3,"CC(C)CN(C(=O)c1cc2ccccn2c1)C(C)c1c[nH]c(=O)c2cc(F)c(F)cc12 (racemic) [Compound 116, N-(1-(6,7-Difluoro-1-oxo-1,2-dihydroisoquinolin-4-yl)ethyl)-N-isobutylindolizine-2-carboxamide]",0.08 µM
4,"CC(C)CN(C(=O)c1ccc(C(F)(F)F)c(F)c1)C(C)c1c[nH]c(=O)c2cc(F)c(F)cc12 (racemic) [Compound 117, N-(1-(6,7-Difluoro-1-oxo-1,2-dihydroisoquinolin-4-yl)ethyl)-3-fluoro-N-isobutyl-4-(trifluoromethyl)benzamide]",0.24 µM
5,"CC(C)CN(C(=O)c1ccc(C(F)(F)F)c(F)c1)C(C)c1c[nH]c(=O)c2c(F)c(F)ccc12 (racemic) [Compound 118, N-(1-(7,8-Difluoro-1-oxo-1,2-dihydroisoquinolin-4-yl)ethyl)-3-fluoro-N-isobutyl-4-(trifluoromethyl)benzamide]",2.23 µM
6,"CC(c1c[nH]c(=O)c2cc(F)c(F)cc12)N(C)C(=O)C(=O)NC1CC1 (racemic) [Compound 143, N1-Cyclopropyl-N2-(1-(6,7-difluoro-1-oxo-1,2-dihydroisoquinolin-4-yl)ethyl)-N2-methyloxalamide]",≥ 25 µM
7,"CC(c1c[nH]c(=O)c2cc(F)c(F)cc12)N(C)C(=O)C(=O)Nc1ccc(F)c(Cl)c1 (racemic) [Compound 144, N1-(3-Chloro-4-fluorophenyl)-N2-(1-(6,7-difluoro-1-oxo-1,2-dihydroisoquinolin-4-yl)ethyl)-N2-methyloxalamide]",1.44 µM

# Same assay, conditions: Hepatitis B virus, HepDE19, 168 h, read-out: DE-19bDNA EC50 (μM), HepDE19 cells, 7 day incubation, rcDNA measured by Quantigene 2.0 bDNA assay, top concentration 25 μM
row,SMILES,EC50
1,"CC(c1c[nH]c(=O)c2cc(F)c(F)cc12)N(C)C(=O)Cc1cc2ccccc2[nH]1 (racemic) [Compound 59, N-(1-(6,7-Difluoro-1-oxo-1,2-dihydroisoquinolin-4-yl)ethyl)-2-(1H-indol-2-yl)-N-methylacetamide]",0.91 µM

# Same assay, conditions: read-out: DE-19bDNA EC50; HepDE19 cells, 7 day incubation, rcDNA measured by Quantigene 2.0 bDNA assay, top concentration 25 μM
row,SMILES,EC50
1,"CC(c1c[nH]c(=O)c2cc(F)c(F)cc12)N(C)C(=O)c1cc2cc(F)ccc2[nH]1 (single isomer, unassigned) [Compound 9, N-(1-(6,7-Difluoro-1-oxo-1,2-dihydroisoquinolin-4-yl)ethyl)-5-fluoro-N-methyl-1H-indole-2-carboxamide]",1.6 µM
2,"CC(c1c[nH]c(=O)c2cc(F)c(F)cc12)N(C)C(=O)c1cc2cc(F)ccc2[nH]1 (single isomer, unassigned) [Compound 10, N-(1-(6,7-Difluoro-1-oxo-1,2-dihydroisoquinolin-4-yl)ethyl)-5-fluoro-N-methyl-1H-indole-2-carboxamide]",0.02 µM
